Patent US10828315B2 (Madrigal Pharmaceuticals, Inc., priority 2013, dated 2020)
Values after ≈ are worked out from the molar mass of the structure shown. “Also recorded” adds a separate entry of the source.

Experiments:
[1] = Physical appearance of SDC-TRAP-0063 formulations and infusion solutions with different diluents and carbonate buffers; format: physicochemical
Method: First, a stock solution of SDC-TRAP-0063 was prepared in DMSO at 22 mg/mL, then the required amount of tween 80 was added and mixed well.
The above formulation containing SDC-TRAP-0063 was diluted using either D5W, D5W (pH 10.5, adjusted with 4.55 mM NaOH) or carbonate buffer, pH 10) (final drug concentration.: 1 mg/mL SDC-TRAP-0063, 1.8% v/v Tween 80, 5% v/v DMSO). The physical observations on these solutions were noted before and filtration through 0.22μ PES filter and were further observed for 3 hr. Refer to the table below for summary of observations. Note: Carbonate buffer, pH 10 was prepared by mixing 0.1M sodium carbonate (27.5 mL) and 0.1M sodium bicarbonate (22.5 mL) and qs 200 mL with DIW. The total Na content of carbonate buffer was 39 mM.
A stock solution of SDC-TRAP-0063 was prepared in either DMSO or PEG-300. To prepare formulations containing DMSO and tween 80, required amount of tween 80 added to the stock of DMSO (containing SDC-TRAP-0063). The formulations were then was diluted with carbonate buffer, pH 10 (composition: add and mix 0.1M sodium carbonate (27.5 mL) and 0.1M sodium bicarbonate (22.5 mL) and qs 200 mL with DIW). The samples (prepared in glass vial) were mixed well and observed for physical appearance while stirring on a magnetic stirring plate at ambient. (Note-appropriate amounts of SDC-TRAP-0063, tween 80, DMSO and PEG-300, as applicable were used to prepare the solutions at the desired concentrations and drug concentrations at 1 mg/mL through 5 mg/mL as shown).
Carbonate buffers of different pH (pH 9-10) and ionic strengths (with higher (>2) Na contents that SDC-TRAP-0063 on molar basis) were prepared and used for diluting the DMSO/tween 80 formulation loaded with SDC-TRAP-0063 (as described in earlier section 3). The final concentrations of DMSO and tween 80 in the diluted carbonate buffer were 5% v/v and 1.8% v/v respectively. The drug concentration was kept constant (5 mg/mL) for all diluted samples.

[2] = tested on: H2AX phosphorylation, HSP70, EGFR, MET; assay: Pharmacodynamics in CRC (HCT-116) xenograft tumors; format: in vivo, mouse
[3] = Chemical properties of SDC-TRAP-0063; format: physicochemical
Excerpt: SDC-TRAP-0063 is a light yellow solid having the following chemical properties: […]

MCF-7 xenografts = conditions: mouse, in vivo
Method: MCF-7 breast cancer cells were purchased from ATCC. The cells were maintained in vitro as a monolayer culture in McCoy's 5a Medium. Fetal bovine serum was then added to the medium. The final concentration of fetal bovine serum was 10%. Cells were cultured at 37° C. and 5% CO2. The tumor cells were routinely sub-cultured twice weekly by trypsin-EDTA treatment. Cells in an exponential growth phase were harvested and counted for tumor inoculation.
75 24-30 g, 10-13 week old, female CD-1 nude mice were inoculated with the MCF-7 cells (5.0×10^6/mouse) orthotopically in mammary fat pad (0.1 mL/mouse). 60 days estrogen pellets was implanted the day prior to cell implantations. When the average tumor volume reached about 100-225 mm^3, 40 of the inoculated mice were selected based on tumor growth and randomly grouped into 5 treatment groups (8 mice per group) according to the following table. Mice that were not put on treatment were euthanized.
During the treatment period, the implanted tumors were measured by caliper twice per week. […] Animal body weights were also weighed and recorded 5× per week.

CCc1c2c(nc3ccc(OC(=O)N4CCC(CCn5ccc6cc(-n7c(O)nnc7-c7cc(C(C)C)c(O)cc7O)ccc65)CC4)cc13)-c1cc3c(c(=O)n1C2)COC(=O)[C@]3(O)CC [SDC-TRAP-0063, 4,11-diethyl-4-hydroxy-3,14-dioxo-3,4,12,14-tetrahydro-1H-pyrano[3′,4′:6,7]indolizino[1,2-b]quinolin-9-yl 4-(2-(5-(3-(2,4-dihydroxy-5-isopropylphenyl)-5-hydroxy-4H-1,2,4-triazol-4-yl)-1H-indol-1-yl)ethyl)piperidine-1-carboxylate]
Observations (physical appearance) ([1]; 5% v/v DMSO, carbonate buffer pH 10 (39 mM Na), 2 mg/mL, Initial): Cloudy
Observations (physical appearance) ([1]; 5% v/v DMSO, carbonate buffer pH 10 (39 mM Na), 2 mg/mL, Overnight): Opaque (less cloudy than at 6 h)
Observations (physical appearance) ([1]; 5% v/v DMSO, carbonate buffer pH 10 (39 mM Na), 3 mg/mL, 30 min): Cloudy
Observations (physical appearance) ([1]; 5% v/v DMSO, carbonate buffer pH 10 (39 mM Na), 3 mg/mL, 1 h): Cloudy
Observations (physical appearance) ([1]; 5% v/v DMSO, carbonate buffer pH 10 (39 mM Na), 3 mg/mL, 6 h): Cloudy
Observations (physical appearance) ([1]; 5% v/v DMSO, carbonate buffer pH 10 (39 mM Na), 3 mg/mL, Initial): Cloudy
Observations (physical appearance) ([1]; 5% v/v DMSO, carbonate buffer pH 10 (39 mM Na), 3 mg/mL, Overnight): Cloudy
Observations (physical appearance) ([1]; 5% v/v DMSO, carbonate buffer pH 10 (39 mM Na), 4 mg/mL, 30 min): Cloudy
Observations (physical appearance) ([1]; 5% v/v DMSO, carbonate buffer pH 10 (39 mM Na), 4 mg/mL, 1 h): Cloudy
Observations (physical appearance) ([1]; 5% v/v DMSO, carbonate buffer pH 10 (39 mM Na), 4 mg/mL, 6 h): Cloudy
Observations (physical appearance) ([1]; 5% v/v DMSO, carbonate buffer pH 10 (39 mM Na), 4 mg/mL, Initial): Cloudy
Observations (physical appearance) ([1]; 5% v/v DMSO, carbonate buffer pH 10 (39 mM Na), 4 mg/mL, Overnight): Cloudy
Observations (physical appearance) ([1]; 5% v/v DMSO, carbonate buffer pH 10 (39 mM Na), 5 mg/mL, 30 min): Cloudy
Observations (physical appearance) ([1]; 5% v/v DMSO, carbonate buffer pH 10 (39 mM Na), 5 mg/mL, 1 h): Cloudy
Observations (physical appearance) ([1]; 5% v/v DMSO, carbonate buffer pH 10 (39 mM Na), 5 mg/mL, 6 h): Cloudy
Observations (physical appearance) ([1]; 5% v/v DMSO, carbonate buffer pH 10 (39 mM Na), 5 mg/mL, Initial): Cloudy
Observations (physical appearance) ([1]; 5% v/v DMSO, carbonate buffer pH 10 (39 mM Na), 5 mg/mL, Overnight): Cloudy
physical appearance after dilution with carbonate buffer, pH 10 ([1]; DMSO alone 5% v/v, 2 mg/mL through 5 mg/mL): stayed cloudy for more than 24 h
physical appearance after dilution with carbonate buffer, pH 10 ([1]; PEG-300 formulations, 1 mg/mL and 2 mg/mL): appeared clear at 30 mm and 1 hr of stirring respectively
physical appearance after dilution with carbonate buffer, pH 10 ([1]; PEG-300 formulations, 3 mg/mL, 4 mg/mL and 5 mg/mL): took longer and were clear next day
Observations (physical appearance) ([1]; […] v/v PEG-300, carbonate buffer pH 10 (39 mM Na), 1 mg/mL, 30 min): clear,
Observations (physical appearance) ([1]; […] v/v PEG-300, carbonate buffer pH 10 (39 mM Na), 1 mg/mL, 1 h): clear, yellow
Observations (physical appearance) ([1]; […] v/v PEG-300, carbonate buffer pH 10 (39 mM Na), 1 mg/mL, 2 h): clear, yellow
Observations (physical appearance) ([1]; […] v/v PEG-300, carbonate buffer pH 10 (39 mM Na), 1 mg/mL, Initial): slightly
Observations (physical appearance) ([1]; […] v/v PEG-300, carbonate buffer pH 10 (39 mM Na), 1 mg/mL, Overnight): clear, yellow
Observations (physical appearance) ([1]; […] v/v PEG-300, carbonate buffer pH 10 (39 mM Na), 2 mg/mL, 30 min): Translucent
Observations (physical appearance) ([1]; […] v/v PEG-300, carbonate buffer pH 10 (39 mM Na), 2 mg/mL, 1 h): clear, yellow
Observations (physical appearance) ([1]; […] v/v PEG-300, carbonate buffer pH 10 (39 mM Na), 2 mg/mL, 2 h): clear, yellow
Observations (physical appearance) ([1]; […] v/v PEG-300, carbonate buffer pH 10 (39 mM Na), 2 mg/mL, Initial): cloudy
Observations (physical appearance) ([1]; […] v/v PEG-300, carbonate buffer pH 10 (39 mM Na), 2 mg/mL, Overnight): clear, yellow
Observations (physical appearance) ([1]; […] v/v PEG-300, carbonate buffer pH 10 (39 mM Na), 3 mg/mL, 30 min): cloudy
Observations (physical appearance) ([1]; […] v/v PEG-300, carbonate buffer pH 10 (39 mM Na), 3 mg/mL, 1 h): cloudy
Observations (physical appearance) ([1]; […] v/v PEG-300, carbonate buffer pH 10 (39 mM Na), 3 mg/mL, 2 h): cloudy
Observations (physical appearance) ([1]; […] v/v PEG-300, carbonate buffer pH 10 (39 mM Na), 3 mg/mL, Initial): cloudy
Observations (physical appearance) ([1]; […] v/v PEG-300, carbonate buffer pH 10 (39 mM Na), 3 mg/mL, Overnight): clear, yellow
Observations (physical appearance) ([1]; […] v/v PEG-300, carbonate buffer pH 10 (39 mM Na), 4 mg/mL, 30 min): cloudy
Observations (physical appearance) ([1]; […] v/v PEG-300, carbonate buffer pH 10 (39 mM Na), 4 mg/mL, 1 h): cloudy
Observations (physical appearance) ([1]; […] v/v PEG-300, carbonate buffer pH 10 (39 mM Na), 4 mg/mL, 2 h): cloudy
Observations (physical appearance) ([1]; […] v/v PEG-300, carbonate buffer pH 10 (39 mM Na), 4 mg/mL, Initial): cloudy
Observations (physical appearance) ([1]; […] v/v PEG-300, carbonate buffer pH 10 (39 mM Na), 4 mg/mL, Overnight): clear, yellow
Observations (physical appearance) ([1]; […] v/v PEG-300, carbonate buffer pH 10 (39 mM Na), 5 mg/mL, 30 min): cloudy
Observations (physical appearance) ([1]; […] v/v PEG-300, carbonate buffer pH 10 (39 mM Na), 5 mg/mL, 1 h): cloudy
Observations (physical appearance) ([1]; […] v/v PEG-300, carbonate buffer pH 10 (39 mM Na), 5 mg/mL, 2 h): cloudy
Observations (physical appearance) ([1]; […] v/v PEG-300, carbonate buffer pH 10 (39 mM Na), 5 mg/mL, Initial): cloudy
Observations (physical appearance) ([1]; […] v/v PEG-300, carbonate buffer pH 10 (39 mM Na), 5 mg/mL, Overnight): clear, yellow
achievable drug concentration in solution ([1]; carbonate buffer pH about 10, high ionic strength, […] v/v tween 80 and 5% v/v DMSO): at least 5 mg/mL
time to clear solution ([1]; high ionic strength carbonate buffer at pH 9.5, 5 mg/mL): ≤ 3 h
physical appearance in lower pH carbonate buffers ([1]; pH 9.3 and pH 9.5, 5% v/v DMSO + […] v/v tween 80, 5 mg/mL): remain cloudy even after stirring overnight
H2AX phosphorylation ([2]; HCT-116 tumors, 24 hr): stimulate H2AX phosphorylation at 24 hr
HSP70 and Hsp90 client protein (EGFR, MET) expression ([2]; HCT-116 tumors, 24 hr exposure): induces HSP70 comparable to irinotecan but much less than ganetespib; also recorded: lack of effects on EGFR and MET stability
Hsp90 inhibition (conclusion from PD) ([2]; HCT-116 xenograft tumors): weak Hsp90 inhibitor
kinetics of H2AX phosphorylation ([2]; HCT-116 xenograft tumors): beginning at 8 hr and leveling off at 24 hr
logP [3]: 4.69
pKa [3]: 9.27
Stability remark beside solubility ([3]; In water (pH = 11.8*)): not stable
solubility ([3]; aqueous buffer, In water (pH = 9.7)): 0.033 mg/mL (≈ 37.5 µM)
solubility ([3]; aqueous buffer, In water (pH = 11.8*)): 0.926 mg/mL (≈ 1050 µM)
solubility ([3]; ethanol, organic solvent or mixture, In EtOH): 1.56 mg/mL (≈ 1770 µM)
solubility ([3]; organic solvent or mixture, In PEG300): 5.64 mg/mL (≈ 6410 µM)
safety profile (MCF-7 xenografts): good safety profile
